Measured values reported in patent US20240018472A1, “ENHANCEMENT OF EXTRACELLULAR VESICLE PRODUCTION BY LYSOSOME INHIBITOR” (ExoTop Theragnostics Inc., priority 2022, published 2024).
Entries after “also recorded” stand apart in the source; their conditions may differ.

Columns and labels:
[1] = system: human MSCs; assay: Intracellular acidification of MSCs, lysotracker red staining of acidic organelles; assay type: cell-based; settings: MSCs cultured in CDPF with lysosome inhibitor vs CCM and CDPF
Protocol: The plate was incubated again.
Human MSCs were cultured in different media including complete culture medium (CCM), CDPF, and CDPF with lysosome inhibitor. The acidic organelles in live stem cells were stained by lysotracker red.

[2] = system: CD63; assay: CD63 ELISA of culture media, secretion of EVs (CD63+ particles) from stem cells; assay type: cell-based, human
Protocol: (§6) Mesenchymal stem cells were seeded on the plate at a density of ˜5000 cells/cm^2 and the plate was placed in a 5% CO2 humidified incubator. One day after the incubation, the culture media was aspirated to remove non-adherent cells and switched to a fresh media. The plate was incubated again. After further culturing for around 3 to 5 days, the culture media was aspirated and replaced by CDPF and/or lysosome inhibitor medium. The cells were cultured in the CDPF and/or lysosome inhibitor medium for 12, 24, or 48 hours. After the designated period of culturing, the culture media was collected and cell lysis buffer was immediately added to the cells on the plate. The collected media and cell lysate were each independently subjected to detection of the level of CD63 by ELISA and by qPCR, respectively.
(§7) To quantitatively compare CD63+ expression in CM cultured in various media including CCM, CDPF, and CDPF with lysosome inhibitor, enzyme-linked immunosorbent (ELISA) assays were performed.

[3] = system: fatty acid synthase (FASN); assay: qPCR RQ for fatty acid synthase (FASN) in MSCs in CCM or CDPF with or without lysosome inhibitor; assay type: cell-based
Protocol: as §6, §7

[4] = system: CD63; assay: CD63 ELISA of cell-cultured media, MSC with or without CQ in three media; assay type: cell-based; settings: for CD63 levels (ELISA) vs corresponding medium without CQ: CQ 50 μM, 48 hours
Protocol: (§1) Mesenchymal stem cells (MSC) were cultured in complete media until reaching 70% overall cell confluence, and then were further cultured in three different media with or without chloroquine (CQ) at 50 μM for 48 hours: complete media (normal culture media containing serum), αMEM (minimum essential media), and CDPF (chemically defined protein-free media). The cell-cultured media were collected, filtered through a 0.2 μm filter, and assessed by CD63 ELISA to quantify the amount of CD63, a protein marker associated with small-sized EVs (FIG. 5A).
(§2) One-way ANOVA statistics were performed to analyze the data. In some cases, CD63 is a marker associated with small-sized EVs. In some cases, CD81 is a marker associated with EVs generally. P-value of greater than 0.05 was considered as not having a significant difference. *** indicates p≤0.001.

[5] = system: CD63; assay: qPCR of CD63 gene expression in MSCs with or without CQ; assay type: cell-based; settings: CQ 50 μM, 48 hours; for gene expression of CD63 (in words): listed as CQ
Protocol: as §1
(§3) To further examine whether the upregulation of CD63 protein is a result of cytosolic secretion or heightened expression at the gene level, an analysis of alterations in the gene expression levels of extracellular vesicle-specific components in both complete and serum-free media was performed. The cultured cells were collected to perform qPCR analysis to detect three well-established EV markers: CD09, CD63, and CD81 (FIGS. 5B, 5C, and 5D).
as §2

[6] = system: CD81; assay: qPCR of CD81 gene expression in MSCs with or without CQ; assay type: cell-based; settings: all media conditions (complete, αMEM, CDPF); CQ 50 μM, 48 hours; listed as CQ
Protocol: as §1, §3, §2

[7] = system: CD09; assay: qPCR of CD09 gene expression in MSCs with or without CQ; assay type: cell-based; settings: all media conditions; CQ 50 μM, 48 hours
Protocol: as §1, §3, §2

[8] = system: Mesenchymal stem cells (MSCs); assay: Cellular morphology of MSCs after 48-hour culture with or without CQ; assay type: cell-based; settings: CQ in serum-free media compared to complete media
Protocol: (§4) Mesenchymal stem cells (MSCs) were subjected to 48-hour culture in either complete media or serum-free media, followed by treatment with or without CQ to investigate alterations in cellular morphology. In addition, the gene expression levels of FASN (fatty acid synthase, a pivotal lipogenic enzyme) and SREBF-1(sterol regulatory element-binding transcription factor-1), two key factors involved in lipid metabolism, were assessed by qPCR.

[9] = system: FASN (fatty acid synthase); assay: qPCR of FASN gene expression in MSCs with or without CQ; assay type: cell-based; settings: both serum-free media and complete media, 48-hour culture
Protocol: as §4

[10] = system: SREBF-1 (sterol regulatory element-binding transcription factor-1); assay: qPCR of SREBF-1 gene expression in MSCs with or without CQ; assay type: cell-based; settings: both serum-free media and complete media, 48-hour culture
Protocol: as §4

[11] = system: TSG-6 (tumor necrosis factor-inducible gene 6 protein); assay: Protein expression of TSG-6, MSC with or without CQ; assay type: cell-based; settings: regardless of the culture condition; CQ 50 μM, 48 hours
Protocol: (§5) Mesenchymal stem cells (MSC) were cultured in complete media until reaching 70% overall cell confluence, and then were further cultured in three different media with or without chloroquine (CQ) at 50 μM for 48 hours: complete media (normal culture media containing serum), αMEM (minimum essential media), and CDPF (chemically defined protein-free media). The cultured cells were analyzed for protein expression of TSG-6 (tumor necrosis factor-inducible gene 6 protein), Gal-3 (β-galactoside-binding lectin-3), and IDO and microRNA expression of miR-21 and miR-222. One-way ANOVA statistics were performed to analyze the data. P-value of greater than 0.05 was considered as not having a significant difference. *** indicates p≤0.001.

[12] = system: Gal-3 (β-galactoside-binding lectin-3); assay: Protein expression of Gal-3, MSC with or without CQ; assay type: cell-based; settings: both αMEM media and CDPF media; CQ 50 μM, 48 hours
Protocol: as §5

[13] = system: IDO; assay: Protein expression of IDO, MSC with or without CQ; assay type: cell-based; settings: both αMEM media and CDPF media; CQ 50 μM, 48 hours
Protocol: as §5

[14] = system: miR-21; assay: microRNA expression of miR-21, MSC with or without CQ; assay type: cell-based; settings: CQ 50 μM, 48 hours
Protocol: as §5

[15] = system: miR-222; assay: microRNA expression of miR-222 (miR-22 in the source), MSC with or without CQ; assay type: cell-based; settings: CQ 50 μM, 48 hours
Protocol: as §5

[16] = system: human CD63 (hCD63) gene
Protocol: Mesenchymal stem cells were seeded on the plate at a density of 5000 cells/cm^2 and the plate was placed in a 5% CO2 humidified incubator. One day after the incubation, the culture media was aspirated to remove non-adherent cells and switched to a fresh media. The plate was incubated again. After further culturing for around 3 to 5 days, the culture media was aspirated and replaced by CDPF and/or lysosome inhibitor medium. The cells were cultured in the CDPF and/or lysosome inhibitor medium for 12, 24, or 48 hours. After the designated period of culturing, the culture media was collected and cell lysis buffer was immediately added to the cells on the plate. The collected media and cell lysate were each independently subjected to detection of the level of CD63 by ELISA and by qPCR, respectively.
To compare hCD63+ expression in MSCs cultured in various media including CCM, CDPF, and CDPF with lysosome inhibitor, RT-quantitative real-time PCR (RT-qPCR) assays were performed.

[17] = CDPF with lysosome inhibitor vs CDPF, RT-qPCR
[18] = complete media culture condition

In the case of CCN(CC)CCCC(C)Nc1ccnc2cc(Cl)ccc12 (centres unmarked) [chloroquine], the “intracellular acidification of human MSCs” value [1] is reported as “suppresses”, the “secretion of EVs (CD63+ particles) from stem cells to cultured medium (in words)” value ([2]; CDPF with lysosome inhibitor vs CCM and CDPF) is reported as “stimulated” and the “EV productions (CD63 ELISA), fold vs CCM or CDPF without lysosome inhibitor” value ([2]; CDPF with lysosome inhibitor vs CCM or CDPF) is reported as “about 2.3 times”. For the same compound, the “expression of FASN, fold vs CCM” value ([3]; CCM with lysosome inhibitor vs CCM, RT-qPCR) was “about 25 times”, the “expression of FASN, fold vs CDPF without lysosome inhibitor” value [3, 17] was “about 5 times” and the “gene expression of FASN (in words)” value ([3]; treatment with lysosome inhibitor, qPCR RQ) was “drastically induced”. For the same compound, the “CD63 levels (ELISA) vs corresponding medium without CQ” value ([4]; CDPF+CQ) was “higher”, the “CD63 levels (ELISA) vs corresponding medium without CQ” value ([4]; complete medium+CQ) was “higher” and the “increase in EVs (CD63+) quantity resulting from CQ treatment, serum-free vs complete media” value ([4]; serum-free media (αMEM and CDPF) compared to complete media) was “larger”. The “CD63 levels (ELISA) vs corresponding medium without CQ” value ([4]; αMEM+CQ) was “higher”, the “gene expression of CD63, fold vs corresponding medium without CQ” value ([5]; CDPF+CQ vs CDPF) was “more than 2.5 times” and the “gene expression of CD63 (in words)” value ([5]; complete media) was “no notable changes; also recorded: not seen”. For the same compound, the “gene expression of CD63 (in words)” value ([5]; serum-free media (αMEM, CDPF), p≤0.001) was “significant upregulation; also recorded: large increase”, the “gene expression of CD63, fold vs corresponding medium without CQ” value ([5]; αMEM+CQ vs αMEM) was “more than 2.5 times” and the “CD81 gene expression (in words)” value [6] was “did not increase significantly; also recorded: remained similar”. For the same compound, the “CD09 expression (in words)” value [7] was “elevated”, the cellular morphology [8] was “notable thinning of spindle-shaped cells and the emergence of numerous lipid body-like structures” and the “gene expression of FASN (in words)” value [9] was “robust upregulation”. For the same compound, the “gene expression of SREBF-1 (in words)” value [10] was “robust upregulation”, the “TSG-6 content levels (in words)” value [11] was “did not stimulate an increase” and the “expression level of Gal-3 (in words)” value [12] was “increased”. For the same compound, the “expression level of IDO (in words)” value [13] was “increased”, the “expression of miR-21 (in words)” value [14, 18] was “did not induce an increase” and the “expression of miR-21 (in words)” value ([14]; serum-free conditions) was “increased”. The “expression of miR-22 (in words)” value [15, 18] was “did not induce an increase”, the “expression of miR-22 (in words)” value ([15]; serum-free conditions) was “increased” and the “expression of hCD63+ gene, fold vs MSCs cultured in CCM” value ([16]; CDPF with lysosome inhibitor vs CCM, RT-qPCR) was “about 10 times”. The “expression of hCD63+ gene, fold vs MSCs cultured in CDPF without lysosome inhibitor” value [16, 17] was “about 5 times” and the “CD63 gene expression in MSCs (in words)” value ([16]; CDPF with lysosome inhibitor, qPCR) was “dramatic increase; also recorded: increased”.
